Tests used:
Type in all cases: biochemical
Src kinase = Src kinase (Homo sapiens, UniProt P12931); test: Z'-LYTE kinase assay (Invitrogen), Src; set-up: full-length kinase in the Z-LYTE assay vs. kinase domain in the current study; purchased Millipore
Outline: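 Human Src activity measured by FRET-based Z′-LYTE Tyr 02 peptide assay at ATP near KM,ATP unless noted. IC50s and single-point inhibition determined over varying macrocycle concentrations. Non-Src kinases tested via a commercial profiling service.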

VEGFR2 (KDR) = VEGFR2 (KDR) (Homo sapiens, UniProt P35968); test: Z'-LYTE kinase assay (Invitrogen SelectScreen); conditions: KDR (VEGFR2); 5 μM
Sequence of VEGFR2 (KDR) (P35968 20-1356): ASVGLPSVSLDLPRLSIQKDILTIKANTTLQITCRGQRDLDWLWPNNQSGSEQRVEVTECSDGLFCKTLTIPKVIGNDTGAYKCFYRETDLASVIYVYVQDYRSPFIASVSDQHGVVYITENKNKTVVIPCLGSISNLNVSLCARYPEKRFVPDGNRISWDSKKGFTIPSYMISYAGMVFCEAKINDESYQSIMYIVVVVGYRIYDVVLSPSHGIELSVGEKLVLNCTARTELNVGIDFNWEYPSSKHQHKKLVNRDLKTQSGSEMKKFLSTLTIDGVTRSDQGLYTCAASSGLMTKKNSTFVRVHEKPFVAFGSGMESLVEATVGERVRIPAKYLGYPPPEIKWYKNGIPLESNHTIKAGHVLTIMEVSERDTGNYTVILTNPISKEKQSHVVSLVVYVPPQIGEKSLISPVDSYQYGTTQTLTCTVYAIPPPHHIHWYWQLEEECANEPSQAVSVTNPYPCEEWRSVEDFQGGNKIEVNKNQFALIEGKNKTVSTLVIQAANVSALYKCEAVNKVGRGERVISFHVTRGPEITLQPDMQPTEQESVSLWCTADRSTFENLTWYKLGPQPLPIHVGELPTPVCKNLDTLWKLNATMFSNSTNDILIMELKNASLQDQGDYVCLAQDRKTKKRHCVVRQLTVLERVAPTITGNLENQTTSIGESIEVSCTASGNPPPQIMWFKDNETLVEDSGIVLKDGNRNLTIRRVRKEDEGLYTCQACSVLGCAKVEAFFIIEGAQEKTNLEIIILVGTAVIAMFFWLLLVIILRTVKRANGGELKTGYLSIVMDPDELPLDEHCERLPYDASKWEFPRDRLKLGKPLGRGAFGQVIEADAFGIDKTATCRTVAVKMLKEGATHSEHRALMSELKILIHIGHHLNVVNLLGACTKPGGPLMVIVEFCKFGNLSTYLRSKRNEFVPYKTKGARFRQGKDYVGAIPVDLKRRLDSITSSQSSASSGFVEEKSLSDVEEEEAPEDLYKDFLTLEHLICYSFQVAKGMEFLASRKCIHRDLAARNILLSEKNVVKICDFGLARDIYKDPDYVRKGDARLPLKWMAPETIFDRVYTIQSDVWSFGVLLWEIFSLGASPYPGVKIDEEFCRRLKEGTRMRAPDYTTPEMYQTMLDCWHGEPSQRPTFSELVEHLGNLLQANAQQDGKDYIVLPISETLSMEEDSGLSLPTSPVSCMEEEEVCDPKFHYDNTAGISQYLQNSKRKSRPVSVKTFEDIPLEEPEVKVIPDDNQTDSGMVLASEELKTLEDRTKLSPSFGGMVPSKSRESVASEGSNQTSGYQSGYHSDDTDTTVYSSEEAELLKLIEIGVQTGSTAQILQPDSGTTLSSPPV
Description: (§1) Macrocycles A10-B1-C11-D5 and A10-B8-C11-D5 were enriched 2- to 6-fold upon selection for binding Akt3, MAPKAPK2, Pim1, and VEGFR2 (FIG. 6). These two macrocycles are structurally similar, sharing nitrophenylalanine (A10) and cyclohexylstatine (C11) building blocks as well as the same lysine scaffold (D5), and differ only at the B building block with either furylalanine (B1) or cyclohexylalanine (B8) (FIG. 6). For assay purposes, the macrocycles were synthesized with C-terminal PEG-diamine linkers to aid solubility, and then tested for the ability to inhibit Akt3, MAPKAPK2, Pim1 and VEGFR2.
(§2) Src IC50 determinations and single-point inhibition measurements were performed using Invitrogen's Z′-LYTE Tyr 02 assay kit according to the manufacturer's protocols. All kinase assays were performed at ATP concentrations near KM,ATP values, except where noted otherwise. Active human Src kinase was obtained from Millipore. For kinome profiling and IC50 determinations against non-Src kinases, compounds were submitted to Invitrogen's SelectScreen Kinase Profiling Service.

Pim1 = Pim1 (Homo sapiens, UniProt P11309); test: Z'-LYTE kinase assay (Invitrogen SelectScreen); conditions: PIM1; 5 μM
Sequence of Pim1 (P11309 whole entry): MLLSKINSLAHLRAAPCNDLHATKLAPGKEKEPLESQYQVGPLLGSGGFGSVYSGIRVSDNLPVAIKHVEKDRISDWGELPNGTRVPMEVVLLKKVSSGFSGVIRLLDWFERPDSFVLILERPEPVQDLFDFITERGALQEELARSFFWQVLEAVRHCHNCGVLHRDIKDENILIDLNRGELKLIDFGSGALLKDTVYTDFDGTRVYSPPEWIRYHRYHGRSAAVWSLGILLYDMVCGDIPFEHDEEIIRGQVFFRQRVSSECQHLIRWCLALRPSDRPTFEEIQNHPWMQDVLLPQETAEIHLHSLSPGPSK
Description: as §1, §2

MAPKAPK2 (MK2) = MAPKAPK2 (MK2) (Homo sapiens, UniProt P49137); test: Z'-LYTE kinase assay (Invitrogen SelectScreen); conditions: MAPKAPK2; 5 μM
Sequence of MAPKAPK2 (MK2) (P49137 whole entry): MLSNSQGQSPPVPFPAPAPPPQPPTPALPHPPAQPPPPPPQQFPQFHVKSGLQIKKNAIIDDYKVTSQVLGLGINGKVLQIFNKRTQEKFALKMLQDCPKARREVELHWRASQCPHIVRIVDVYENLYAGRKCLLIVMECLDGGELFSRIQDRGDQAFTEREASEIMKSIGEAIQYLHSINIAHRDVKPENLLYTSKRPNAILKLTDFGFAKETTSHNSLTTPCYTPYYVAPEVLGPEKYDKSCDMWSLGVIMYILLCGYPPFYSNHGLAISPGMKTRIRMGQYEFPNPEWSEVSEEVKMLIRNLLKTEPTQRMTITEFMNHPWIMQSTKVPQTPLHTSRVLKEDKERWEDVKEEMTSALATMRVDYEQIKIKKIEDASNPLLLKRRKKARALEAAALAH
Description: as §1, §2

Akt3 = Akt3 (Homo sapiens, UniProt Q9Y243); test: Z'-LYTE kinase assay (Invitrogen SelectScreen); conditions: AKT3 (PKB gamma); 5 μM
Sequence of Akt3 (Q9Y243 whole entry): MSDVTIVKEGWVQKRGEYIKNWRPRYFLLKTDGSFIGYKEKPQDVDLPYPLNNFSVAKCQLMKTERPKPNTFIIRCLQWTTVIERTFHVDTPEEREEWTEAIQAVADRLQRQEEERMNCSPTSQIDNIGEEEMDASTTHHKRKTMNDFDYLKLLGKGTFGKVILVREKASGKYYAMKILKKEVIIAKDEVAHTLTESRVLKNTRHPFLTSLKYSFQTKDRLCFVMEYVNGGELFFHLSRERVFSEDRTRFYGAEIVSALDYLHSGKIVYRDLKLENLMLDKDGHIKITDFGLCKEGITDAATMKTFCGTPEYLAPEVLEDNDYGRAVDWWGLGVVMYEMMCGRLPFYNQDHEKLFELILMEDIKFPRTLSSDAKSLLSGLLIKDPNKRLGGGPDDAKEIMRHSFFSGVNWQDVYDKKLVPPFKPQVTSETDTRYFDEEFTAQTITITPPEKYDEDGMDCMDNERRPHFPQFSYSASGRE
Description: as §1, §2

Sequence of Src kinase (P12931 whole entry, the tested form may be a part): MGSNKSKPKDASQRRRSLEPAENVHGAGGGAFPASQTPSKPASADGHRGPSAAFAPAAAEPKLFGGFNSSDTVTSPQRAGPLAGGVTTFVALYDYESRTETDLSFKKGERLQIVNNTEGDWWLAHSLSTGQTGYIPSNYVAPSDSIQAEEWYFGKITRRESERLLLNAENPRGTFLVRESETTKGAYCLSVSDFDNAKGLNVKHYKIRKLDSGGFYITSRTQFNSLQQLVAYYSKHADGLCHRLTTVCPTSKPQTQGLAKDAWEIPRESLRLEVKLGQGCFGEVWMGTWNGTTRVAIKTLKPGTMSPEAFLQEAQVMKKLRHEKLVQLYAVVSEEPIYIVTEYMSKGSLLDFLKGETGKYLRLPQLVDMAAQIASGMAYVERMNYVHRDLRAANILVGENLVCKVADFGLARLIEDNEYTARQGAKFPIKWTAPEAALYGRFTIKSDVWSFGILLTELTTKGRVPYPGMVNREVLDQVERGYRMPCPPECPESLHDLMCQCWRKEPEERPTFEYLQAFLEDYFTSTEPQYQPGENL

## NC(=O)[C@@H]1CCCNC(=O)[C@H](Cc2ccc([N+](=O)[O-])cc2)NC(=O)[C@H](Cc2ccco2)NC(=O)[C@H](CC2CC2)NC(=O)/C=C/C(=O)N1 [trans-A10-B1-C5-D6]
Src kinase; SRC, 5 μM, data from FIG. 8 and Table 6
  % inhibition: 86%
Src kinase; apparent KM for ATP versus macrocycle concentration
  mode of Src inhibition: ATP-competitive
VEGFR2 (KDR)
  % inhibition: 7%
Pim1
  % inhibition: −3%
MAPKAPK2 (MK2)
  % inhibition: −3%
Akt3
  % inhibition: 11%

Reference: patent publication US8975232B2, “Macrocyclic kinase inhibitors and uses thereof” (President and Fellows of Harvard College, priority 2010, dated 2015)
